From US7626031B2, “Substituted 3-(diarylmethylene)indolin-2-ones and methods of their use” (Symphony Evolution, Inc., priority 2002, dated 2009)

What was measured:
[1] = target: EphA2 (Homo sapiens, UniProt P29317); test: Kinase assay, EphA2 (33P-ATP incorporation or luciferase-coupled ATP consumption); format: biochemical
Method: (§1) Kinase assays were performed by measurement of incorporation of γ-^33P ATP into immobilized myelin basic protein (MBP). […] Plates were washed 3× with 100 μl TBS. […] Compound dilutions were performed in DMSO and added to assay wells to a final DMSO concentration of 1%. Each data point was measured in duplicate, and at least two duplicate assays were performed for each individual compound determination. Enzyme was added to final concentrations of 10 nM or 20 nM, for example. A mixture of unlabeled ATP and γ-^33P ATP was added to start the reaction (2×10^6 cpm of γ-^33P ATP per well (3000 Ci/mmole) and either 10 μM or 30 μM unlabeled ATP, typically. The reactions were carried out for 1 hour at room temperature with shaking. Plates were washed 7× with TBS, followed by the addition of 50 μl/well scintillation fluid (Wallac). Plates were read using a Wallac Trilux counter. This is only one format of such assays, various other formats are possible, as known to one of ordinary skill in the art.
(§2) Tyrosine kinase activity is determined by 1) measurement of kinase-dependent ATP consumption by in the presence of a generic substrate such as, polyglutamic acid, tyrosine, 4:1 (pEY), by luciferase/luciferin-mediated chemiluminescence or; 2) incorporation of radioactive phosphate derived from ^33P-ATP into a generic substrate which has been adsorbed onto the well surface of polystyrene microtiter plates. Phosphorylated substrate products are quantified by scintillation spectrometry.
(§3) Kinase activity and compound inhibition are investigated using one or more assay formats. The ATP concentrations for each assay are selected to be close to the Michaelis-Menten constant (KM) for each individual kinase. Dose-response experiments are performed at 10 different inhibitor concentrations in a 384-well plate format. […] Exemplary kinase assays are described below. KDR Assay

[2] = target: EGFR (Homo sapiens, UniProt P00533); test: Kinase assay, EGFR (33P-ATP incorporation or luciferase-coupled ATP consumption); format: biochemical
Method: as §1, §2, §3

[3] = target: Fyn (Homo sapiens, UniProt P06241); test: Kinase assay, Fyn; format: biochemical
Sequence of Fyn (P06241 whole entry, species assumed): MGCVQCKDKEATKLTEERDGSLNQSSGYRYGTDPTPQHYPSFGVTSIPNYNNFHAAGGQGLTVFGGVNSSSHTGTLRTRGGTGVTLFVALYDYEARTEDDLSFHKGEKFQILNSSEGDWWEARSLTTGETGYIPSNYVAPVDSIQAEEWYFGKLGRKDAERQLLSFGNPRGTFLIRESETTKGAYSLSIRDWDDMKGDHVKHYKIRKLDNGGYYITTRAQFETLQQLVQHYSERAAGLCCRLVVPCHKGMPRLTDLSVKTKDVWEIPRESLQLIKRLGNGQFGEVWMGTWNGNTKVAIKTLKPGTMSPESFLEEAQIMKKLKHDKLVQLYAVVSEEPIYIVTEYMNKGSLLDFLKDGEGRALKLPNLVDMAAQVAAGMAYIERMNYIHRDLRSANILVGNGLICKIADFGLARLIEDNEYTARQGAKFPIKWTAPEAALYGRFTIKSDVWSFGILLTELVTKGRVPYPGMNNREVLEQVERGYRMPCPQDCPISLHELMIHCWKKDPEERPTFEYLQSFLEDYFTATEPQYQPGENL
Method: as §3

[4] = target: IRK (Homo sapiens, UniProt P06213); test: Kinase assay, IRK; format: biochemical
Sequence of IRK (P06213 28-1382): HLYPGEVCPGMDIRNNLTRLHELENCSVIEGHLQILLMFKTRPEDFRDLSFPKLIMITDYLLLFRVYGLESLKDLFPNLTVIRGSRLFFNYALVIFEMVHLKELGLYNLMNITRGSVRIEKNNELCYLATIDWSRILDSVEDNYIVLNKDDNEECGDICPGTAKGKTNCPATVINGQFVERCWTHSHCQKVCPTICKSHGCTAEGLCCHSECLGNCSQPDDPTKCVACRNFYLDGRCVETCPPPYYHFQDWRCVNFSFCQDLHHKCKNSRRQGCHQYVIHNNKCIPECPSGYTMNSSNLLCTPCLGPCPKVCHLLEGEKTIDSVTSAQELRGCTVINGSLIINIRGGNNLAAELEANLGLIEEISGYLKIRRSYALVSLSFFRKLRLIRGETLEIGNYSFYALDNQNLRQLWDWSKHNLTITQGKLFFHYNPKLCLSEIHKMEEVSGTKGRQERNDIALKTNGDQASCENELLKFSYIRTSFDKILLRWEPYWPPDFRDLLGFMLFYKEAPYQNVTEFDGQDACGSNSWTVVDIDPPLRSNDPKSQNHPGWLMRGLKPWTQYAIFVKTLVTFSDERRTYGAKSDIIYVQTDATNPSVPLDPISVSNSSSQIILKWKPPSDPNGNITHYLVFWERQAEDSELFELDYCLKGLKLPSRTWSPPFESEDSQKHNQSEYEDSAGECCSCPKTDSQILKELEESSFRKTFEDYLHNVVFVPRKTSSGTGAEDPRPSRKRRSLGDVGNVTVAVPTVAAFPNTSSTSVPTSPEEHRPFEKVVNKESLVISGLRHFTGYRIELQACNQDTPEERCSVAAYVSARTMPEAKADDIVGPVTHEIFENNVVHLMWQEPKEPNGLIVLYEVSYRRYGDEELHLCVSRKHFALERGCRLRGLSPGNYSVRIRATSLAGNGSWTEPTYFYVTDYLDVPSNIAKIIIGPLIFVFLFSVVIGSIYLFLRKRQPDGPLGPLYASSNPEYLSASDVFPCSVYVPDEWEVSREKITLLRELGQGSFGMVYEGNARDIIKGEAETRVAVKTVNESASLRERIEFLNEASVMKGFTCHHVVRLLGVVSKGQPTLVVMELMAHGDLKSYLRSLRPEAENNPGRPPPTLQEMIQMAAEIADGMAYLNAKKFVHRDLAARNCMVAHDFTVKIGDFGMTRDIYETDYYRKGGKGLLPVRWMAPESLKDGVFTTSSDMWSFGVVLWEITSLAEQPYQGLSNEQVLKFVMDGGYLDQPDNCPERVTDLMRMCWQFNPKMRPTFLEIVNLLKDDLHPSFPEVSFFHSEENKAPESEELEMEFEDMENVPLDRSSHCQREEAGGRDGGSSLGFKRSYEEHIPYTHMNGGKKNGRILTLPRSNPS
Method: as §3

[5] = target: T1, KDR (baculovirus expressed human KDR kinase domain D807-V1356) (Homo sapiens, UniProt P35968); test: biochemical
T1 construct: human KDR kinase domain D807-V1356; host or cells: baculovirus expression system
T1 sequence (P35968 807-1356): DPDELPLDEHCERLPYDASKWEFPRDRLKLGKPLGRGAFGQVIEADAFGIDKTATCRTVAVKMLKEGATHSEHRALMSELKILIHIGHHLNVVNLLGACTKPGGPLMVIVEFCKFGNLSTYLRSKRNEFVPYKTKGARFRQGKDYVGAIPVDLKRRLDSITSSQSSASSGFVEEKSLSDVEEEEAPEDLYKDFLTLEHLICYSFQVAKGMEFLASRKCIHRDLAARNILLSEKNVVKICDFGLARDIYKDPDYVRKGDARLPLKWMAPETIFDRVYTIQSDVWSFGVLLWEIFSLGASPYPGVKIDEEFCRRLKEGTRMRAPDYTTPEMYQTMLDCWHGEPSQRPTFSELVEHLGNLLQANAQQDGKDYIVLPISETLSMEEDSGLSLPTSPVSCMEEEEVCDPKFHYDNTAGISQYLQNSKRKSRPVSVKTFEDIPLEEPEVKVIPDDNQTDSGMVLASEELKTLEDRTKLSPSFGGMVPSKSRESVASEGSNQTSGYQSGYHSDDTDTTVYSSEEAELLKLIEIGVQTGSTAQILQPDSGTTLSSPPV
Method: as §3
KDR biochemical activity was assessed using a Luciferase-Coupled Chemiluminescent Kinase assay (LCCA) format. Kinase activity was measured as the percent ATP remaining following the kinase reaction. Remaining ATP was detected by luciferase-luciferin-coupled chemiluminescence. […] The mixture is incubated at ambient temperature for 4 hours after which 20 uL luciferase-luciferin mix is added and the chemiluminescent signal read using a Wallac Victor^2 reader.

[6] = target: FGFR1 (Homo sapiens, UniProt P11362); test: Kinase assay, FGFR1 (33P-ATP incorporation or luciferase-coupled ATP consumption); format: biochemical
Sequence of FGFR1 (P11362 22-822, species assumed): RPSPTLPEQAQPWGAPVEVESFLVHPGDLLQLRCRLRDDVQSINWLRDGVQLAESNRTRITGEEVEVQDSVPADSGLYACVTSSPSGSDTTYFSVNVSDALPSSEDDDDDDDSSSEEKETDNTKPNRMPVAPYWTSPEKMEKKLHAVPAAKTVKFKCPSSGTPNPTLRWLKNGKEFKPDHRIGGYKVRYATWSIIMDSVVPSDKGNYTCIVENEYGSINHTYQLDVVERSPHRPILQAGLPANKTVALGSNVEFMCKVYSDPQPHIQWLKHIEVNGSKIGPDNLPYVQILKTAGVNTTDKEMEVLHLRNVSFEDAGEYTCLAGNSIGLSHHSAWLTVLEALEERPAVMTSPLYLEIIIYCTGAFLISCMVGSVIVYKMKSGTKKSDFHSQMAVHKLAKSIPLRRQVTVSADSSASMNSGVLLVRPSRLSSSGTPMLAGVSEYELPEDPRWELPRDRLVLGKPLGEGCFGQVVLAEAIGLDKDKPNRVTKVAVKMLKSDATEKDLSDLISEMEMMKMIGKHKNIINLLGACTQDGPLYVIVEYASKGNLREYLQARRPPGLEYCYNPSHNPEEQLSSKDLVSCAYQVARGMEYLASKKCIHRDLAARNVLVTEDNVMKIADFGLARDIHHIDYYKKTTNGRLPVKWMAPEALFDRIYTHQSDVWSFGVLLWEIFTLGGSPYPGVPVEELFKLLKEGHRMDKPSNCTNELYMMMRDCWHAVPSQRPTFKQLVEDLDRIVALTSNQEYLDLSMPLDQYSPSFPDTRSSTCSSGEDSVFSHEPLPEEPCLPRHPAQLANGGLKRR
Method: as §1, §2, §3

[7] = target: PDGFR alpha (Homo sapiens, UniProt P16234); test: Kinase assay, PDGFR alpha (33P-ATP incorporation or luciferase-coupled ATP consumption); format: biochemical; settings: read-out: PDGF-R-A IC50
Method: as §1, §2, §3

Sequence of EphA2 (P29317 24-976, species assumed): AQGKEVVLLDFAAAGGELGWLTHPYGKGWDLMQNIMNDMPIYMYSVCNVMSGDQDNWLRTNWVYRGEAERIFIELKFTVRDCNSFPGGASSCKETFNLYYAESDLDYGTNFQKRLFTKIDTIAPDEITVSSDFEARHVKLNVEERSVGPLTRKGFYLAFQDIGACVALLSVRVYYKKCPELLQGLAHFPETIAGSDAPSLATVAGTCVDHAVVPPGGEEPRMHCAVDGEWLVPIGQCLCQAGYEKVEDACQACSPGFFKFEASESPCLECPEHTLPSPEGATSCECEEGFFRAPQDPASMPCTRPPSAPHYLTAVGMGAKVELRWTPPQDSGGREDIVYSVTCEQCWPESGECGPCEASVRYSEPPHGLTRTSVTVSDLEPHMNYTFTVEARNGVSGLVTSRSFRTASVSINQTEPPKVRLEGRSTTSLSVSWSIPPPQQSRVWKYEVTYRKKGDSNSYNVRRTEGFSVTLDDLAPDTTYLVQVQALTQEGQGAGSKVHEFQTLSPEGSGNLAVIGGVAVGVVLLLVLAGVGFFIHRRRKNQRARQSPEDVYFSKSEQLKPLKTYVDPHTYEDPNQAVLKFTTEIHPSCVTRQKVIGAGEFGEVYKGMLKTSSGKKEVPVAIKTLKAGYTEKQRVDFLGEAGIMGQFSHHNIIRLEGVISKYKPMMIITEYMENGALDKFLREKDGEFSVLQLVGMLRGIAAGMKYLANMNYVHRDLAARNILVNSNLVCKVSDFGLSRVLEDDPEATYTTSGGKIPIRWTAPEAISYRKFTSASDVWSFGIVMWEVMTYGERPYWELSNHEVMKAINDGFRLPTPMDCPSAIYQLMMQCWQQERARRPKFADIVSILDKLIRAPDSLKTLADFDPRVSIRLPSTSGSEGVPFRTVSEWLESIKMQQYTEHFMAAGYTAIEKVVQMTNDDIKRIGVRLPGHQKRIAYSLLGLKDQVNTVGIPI

SMILES: CCN1CCCC(Nc2ccc3c(c2)/C(=C(\c2ccccc2)c2nc4cc(OC)ccc4[nH]2)C(=O)N3)C1 (stereo not drawn) [Entry 2, (3Z)-5-[(1-ethylpiperidin-3-yl)amino]-3-[[5-(methyloxy)-1H-benzimidazol-2-yl](phenyl)methylidene]-1,3-dihydro-2H-indol-2-one]
- IC50 [1]: 500 to 5000 nM
- IC50 [2]: 500 to 5000 nM
- IC50 [3]: 500 to 5000 nM

SMILES: CCN1CCC(Oc2ccc3c(c2)/C(=C(\c2ccccc2)c2nc4cc(OC)ccc4[nH]2)C(=O)N3)CC1 [Entry 14, (3Z)-5-[(1-ethytpiperidin-4-yl)oxy]-3-[[5-(methyloxy)-1H-benzimidazol-2-yl](phenyl)methylidene]-1,3-dihydro-2H-indol-2-one]
- IC50 [1]: 500 to 5000 nM
- IC50 [2]: 500 to 5000 nM
- IC50 [3]: < 50 nM
- IC50 [4]: 500 to 5000 nM

SMILES: CCN1CCC(Nc2ccc3c(c2)/C(=C(\c2ccc(F)c(C)c2)c2nc4ccccc4[nH]2)C(=O)N3)CC1 [Entry 52, (3Z)-3-[1H-benzimidazol-2-yl(4-fluoro-3-methylphenyl)methylidene]-5-{(1-ethylpiperidin-4-yl)amino]-1,3-dihydro-2H-indol-2-one]
- IC50 [5]: < 50 nM
- IC50 [1]: 500 to 5000 nM
- IC50 [6]: 50 to 500 nM
- IC50 [7]: < 50 nM
- IC50 [3]: < 50 nM
- IC50 [4]: 500 to 5000 nM

SMILES: CCN1CCC(Nc2ccc3c(c2)/C(=C(\c2ccccc2)c2nc4cc(Cl)ccc4[nH]2)C(=O)N3)CC1 [Entry 55, (3Z)-3-[(5-chloro-1H-benzimidazol-2-yl)(phenyl)methylidene]-5-[(1-ethylpiperidin-4-yl)amino]-1,3-dihydro-2H-indol-2-one]
- IC50 [5]: < 50 nM
- IC50 [1]: 500 to 5000 nM
- IC50 [6]: 50 to 500 nM
- IC50 [7]: < 50 nM
- IC50 [3]: < 50 nM
- IC50 [4]: 500 to 5000 nM

SMILES: CCN1CCC(Nc2ccc3c(c2)/C(=C(\c2cc(F)cc(F)c2)c2nc4cc(Cl)ccc4[nH]2)C(=O)N3)CC1 [Entry 56, (3Z)-3-[(5-chloro-1H-benzimidazol-2-yl) (3,5-dilfuorophenyl)methylidene]-5-[(1-ethylpiperidin-4-yl)amino]-1,3-dihydro-2H-indol-2-one]
- IC50 [5]: < 50 nM
- IC50 [1]: 500 to 5000 nM
- IC50 [6]: 50 to 500 nM
- IC50 [7]: < 50 nM
- IC50 [3]: < 50 nM
- IC50 [4]: > 5000 nM

SMILES: CCCc1ccc(/C(=C2/C(=O)Nc3ccc(NC4CCN(CC)CC4)cc32)c2ncc[nH]2)cc1 [Entry 59, (3Z)-5-[(1-ethylpiperidin-4-yl)amino]-3-[1H-imidazol-2-yl(4-propylphenyl)methylidene]-1,3-dihydro-2H-indol-2-one]
- IC50 [5]: < 50 nM
- IC50 [1]: 500 to 5000 nM
- IC50 [2]: 50 to 500 nM
- IC50 [6]: < 50 nM
- IC50 [7]: < 50 nM
- IC50 [3]: < 50 nM
- IC50 [4]: 500 to 5000 nM

SMILES: CCN1CCC(Nc2ccc3c(c2)/C(=C(/c2cc(F)cc(F)c2)c2nc4cc(F)ccc4[nH]2)C(=O)N3)CC1 [Entry 61, (3E)-3-[(3,5-difluorophenyl)(5-fluoro-1H-benzimidazol-2-yl)methylidene]-5-[(1-ethylpiperidin-4-yl)amino]-1,3-dihydro-2H-indol-2-one]
- IC50 [5]: < 50 nM
- IC50 [1]: > 5000 nM
- IC50 [2]: > 5000 nM
- IC50 [6]: 50 to 500 nM
- IC50 [7]: < 50 nM
- IC50 [3]: < 50 nM
- IC50 [4]: > 5000 nM

SMILES: CCN1CCC(Nc2ccc3c(c2)/C(=C(\c2cc(F)cc(F)c2)c2nc4cc(F)ccc4[nH]2)C(=O)N3)CC1 [Entry 62, (3Z)-3-[(3,5-difluorophenyl)(5-fluoro-1H-benzimidazol-2-yl)methylidene]-5-[(1-ethylpiperidin-4-yl)amino]-1,3-dihydro-2H-indol-2-one]
- IC50 [5]: < 50 nM
- IC50 [1]: 500 to 5000 nM
- IC50 [2]: 50 to 500 nM
- IC50 [6]: < 50 nM
- IC50 [7]: < 50 nM
- IC50 [3]: < 50 nM
- IC50 [4]: > 5000 nM

SMILES: COCCN1CCC(Nc2ccc3c(c2)/C(=C(\c2ccc(C)c(F)c2)c2ncc[nH]2)C(=O)N3)CC1 [Entry 63, (3Z)-3-[(3-fluoro-4-methylphenyl)(1H-imidazol-2-yl)methylidene]-5-({1-[2-(methyloxy)ethyl]piperidin-4-yl}amino)-1,3-dihydro-2H-indol-2-one]
- IC50 [5]: < 50 nM
- IC50 [1]: 50 to 500 nM
- IC50 [2]: 50 to 500 nM
- IC50 [6]: < 50 nM
- IC50 [7]: < 50 nM
- IC50 [3]: < 50 nM
- IC50 [4]: 500 to 5000 nM

SMILES: CCN1CCC(Nc2ccc3c(c2)/C(=C(\c2ccc(C(F)(F)F)nc2)c2ncc[nH]2)C(=O)N3)CC1 [Entry 68]
- IC50 [5]: 50 to 500 nM
- IC50 [1]: 500 to 5000 nM
- IC50 [2]: > 5000 nM
- IC50 [6]: 50 to 500 nM
- IC50 [7]: < 50 nM
- IC50 [3]: 50 to 500 nM
- IC50 [4]: > 5000 nM

SMILES: COCCN1CCC(Nc2ccc3c(c2)/C(=C(\c2ccc(C)cc2)c2ncc[nH]2)C(=O)N3)CC1 [Entry 69]
- IC50 [5]: < 50 nM
- IC50 [1]: 50 to 500 nM
- IC50 [2]: 50 to 500 nM
- IC50 [6]: < 50 nM
- IC50 [7]: < 50 nM
- IC50 [3]: < 50 nM
- IC50 [4]: 500 to 5000 nM

SMILES: COCCN1CCC(Nc2ccc3c(c2)/C(=C(\c2cccc(F)c2)c2nc(C)c[nH]2)C(=O)N3)CC1 [Entry 70, (3Z)-3-[(3-fluorophenyl)(4-methyl-1H-imidazol-2-yl)methylidene]-5-({1-[2-(methyloxy)ethyl]piperidin-4-yl}amino)-1,3-dihydro-2H-indol-2-one]
- IC50 [5]: < 50 nM
- IC50 [1]: 50 to 500 nM
- IC50 [2]: 50 to 500 nM
- IC50 [6]: < 50 nM
- IC50 [7]: < 50 nM
- IC50 [3]: < 50 nM
- IC50 [4]: 500 to 5000 nM

SMILES: COCCN1CCC(Nc2ccc3c(c2)/C(=C(\c2ccc(C(F)(F)F)cc2)c2ncc[nH]2)C(=O)N3)CC1 [Entry 71]
- IC50 [5]: < 50 nM
- IC50 [1]: 500 to 5000 nM
- IC50 [2]: > 5000 nM
- IC50 [6]: < 50 nM
- IC50 [7]: < 50 nM
- IC50 [3]: 50 to 500 nM
- IC50 [4]: > 5000 nM

SMILES: CS(=O)(=O)N1CCC(Nc2ccc3c(c2)/C(=C(\c2cccc(F)c2)c2ncc[nH]2)C(=O)N3)CC1 [Entry 93, (3Z)-3-[(3-fluorophenyl)(1H-imidazol-2-yl)methylidene]-5-{[1-(methylsulfonyl)piperidin-4-yl]amino}-1,3-dihydro-2H-indol-2-one]
- IC50 [5]: 50 to 500 nM
- IC50 [1]: > 5000 nM
- IC50 [2]: > 5000 nM
- IC50 [6]: 50 to 500 nM
- IC50 [3]: > 5000 nM
- IC50 [4]: 500 to 5000 nM

SMILES: CCCc1ccc(/C(=C2/C(=O)Nc3ccc(NC4CCN(CCOC)CC4)cc32)c2ncc[nH]2)cc1 [Entry 94, (3Z)-3-[1H-imidazol-2-yl(4-propylphenyl)methylidene]-5-({1-[2-(methyloxy)ethyl]piperidin-4-yl}amino)-1,3-dihydro-2H-indol-2-one]
- IC50 [5]: < 50 nM
- IC50 [1]: 500 to 5000 nM
- IC50 [2]: 50 to 500 nM
- IC50 [6]: < 50 nM
- IC50 [3]: < 50 nM
- IC50 [4]: 500 to 5000 nM

SMILES: CCN1CCC(Nc2ccc3c(c2)/C(=C(\c2cccc(F)c2)c2nc(-c4ccccc4)c[nH]2)C(=O)N3)CC1 [Entry 95, (3Z)-5-[(1-ethylpiperidin-4-yl)amino]-3-[(3-fluorophenyl)(4-phenyl-1H-imidazol-2-yl)methylidene]-1,3-dihydro-2H-indol-2-one]
- IC50 [5]: < 50 nM
- IC50 [1]: 500 to 5000 nM
- IC50 [2]: 50 to 500 nM
- IC50 [6]: < 50 nM
- IC50 [3]: < 50 nM
- IC50 [4]: 500 to 5000 nM

SMILES: COCCN1CCC(Nc2ccc3c(c2)/C(=C(\c2cccc(F)c2)c2nc(-c4ccccc4)c[nH]2)C(=O)N3)CC1 [Entry 96, (3Z)-3-[(3-fluorophenyl)(4-phenyl-1H-imidazol-2-yl)methylidene]-5-({1-[2-(methyloxy)ethyl]piperidin-4-yl}amino)-1,3-dihydro-2H-indol-2-one]
- IC50 [5]: < 50 nM
- IC50 [1]: 500 to 5000 nM
- IC50 [2]: 50 to 500 nM
- IC50 [6]: < 50 nM
- IC50 [3]: < 50 nM
- IC50 [4]: 500 to 5000 nM

SMILES: COCCN1CCC(Nc2ccc3c(c2)/C(=C(\c2ccc(C(F)(F)F)nc2)c2ncc[nH]2)C(=O)N3)CC1 [Entry 98]
- IC50 [5]: 50 to 500 nM
- IC50 [1]: 500 to 5000 nM
- IC50 [2]: > 5000 nM
- IC50 [6]: 50 to 500 nM
- IC50 [3]: 50 to 500 nM
- IC50 [4]: > 5000 nM

SMILES: CCN1CCC(Nc2ccc3c(c2)/C(=C(\c2cccc(F)c2)c2ncn[nH]2)C(=O)N3)CC1 [Entry 99, (3Z)-5-[(1-ethylpiperidin-4-yl)amino]-3-[(3-fluorophenyl)(1H-1,2,4-triazol-5-yl)methylidene]-1,3-dihydro-2H-indol-2-one]
- IC50 [5]: 50 to 500 nM
- IC50 [1]: > 5000 nM
- IC50 [2]: > 5000 nM
- IC50 [6]: 50 to 500 nM
- IC50 [3]: > 5000 nM
- IC50 [4]: > 5000 nM
